Results from patent publication US7816074B2, “α4 β2 δGABA-A receptors as a strategy for PMS and alcoholism” (priority 2003, dated 2010).

Experiments:
Type in all cases: in vivo, rat
δ subunit mRNA = assay: Semi-quantitative RT-PCR of δ subunit in hippocampus; settings: after progesterone withdrawal
Procedure: (§1) Crystalline progesterone was administered via a silicone capsule ( 1/16″ i.d., ⅛″ o.d.) implanted subcutaneously (10 mm length/100 gm body weight) in female rats (110-120 grams, in vitro studies; 220-250 grams, behavioral studies) for 21 days. Control rats were implanted with an empty capsule. […] Animals were tested 24 hours after removal of the implant.
Following isolation of total RNA from hippocampus, reverse transcription (SuperScript II, Rnase RT, GibcoBRL) yielded complementary DNA (cDNA) which was amplified with PCR methods (65) using oligonucleotide primers for the δ subunit (398 bp)(70) and GAPDH (657 bp, Operon). Twenty three to thirty amplification cycles were used for two different concentrations of cDNA (25 or 50 ng) to detect band densities within a linear range (15). Following gel electrophoresis (FMC Bioproducts), the density of DNA bands stained with ethidium bromide was quantified and normalized to the GAPDH control.

[1] = system: δ and α4 GABAA receptor subunit proteins; assay: Western blot of δ and α4 subunits in hippocampus after progesterone withdrawal
Procedure: as §1
Membranes prepared from hippocampal tissue were solubilized and electrophoresed on 9% SDS-polyacrylamide gels before transfer to a polyvinyldifluoride membrane, as described (65,69). Polyclonal antiserum against the δ subunit (Asr^318-Leu^400) was supplied by Dr. R. McKernan (Merck)(56) and is visualized as a 54 kDa band. Membranes were also probed with an antibody for the α4 GABAA receptor subunit (67 kDa) (64), developed according to a previously described protocol (38), and a commercial antibody for the control protein GAPDH (glyceraldehyde-3-phosphate dehydrogenase; 36 kDa). Membranes were incubated for 1-2 hours at room temperature with 1:10,000 (α4), 1:7,000 (δ) or 1:20,000 (GAPDH) dilution of antibody followed by addition of 1:5,000 horseradish-peroxidase-conjugated donkey anti-rabbit IgG (Amersham). Band densities were quantified using densitometry with One-Dscan software after normalization to the GAPDH control. Reagents were obtained from Sigma/Genosys.

GABAR α4 subunit = assay: Western blot of α4 subunit in hippocampus after steroid and ethanol administration; settings: steroid withdrawal after 21 days progesterone
Procedure: Animals were administered steroids using one of two protocols: (i) For the 48 hour steroid administration protocol, animals were injected with 10 mg/kg 3α, 5β THP in oil, i.p., on a daily basis for three days and sacrificed 1-2 hour following the final injection. Controls were injected with oil vehicle. […] At this time, the capsule was removed and the animals were injected with 17 β estradiol (2 μgs/animal) in order to reset their cycle. Animals were sacrificed 24 hours later. […] In all cases, implantation and removal of capsules were performed under halothane anesthesia. […] Therefore, this study employed the 5β isomer of the steroid.
In some groups of animals, either ethanol (0.5 g/kg in saline) or saline vehicle was administered i.p. (3×, every 40 minutes) for the final 2 hours of the respective steroid administration or withdrawal paradigm. The use of multiple injections of low doses of ethanol would approximate ethanol consumption in the human more closely than would a single injection. For the 48 hour steroid administration paradigm, animals received their first ethanol injection immediately after the steroid injection, and subsequent injections at 40 minute intervals. In all cases, animals were sacrificed 40 minutes after the final ethanol injection (2 hours after the first ethanol injection and final steroid injection). All animal protocols were carried out with the approval of the Institutional Animal Care and Use Committee.
Hippocampi removed from steroid or vehicle-treated animals were homogenized, and membranes prepared as previously described (65). Following electrophoresis on 8% SDS polyacrylamide gels, membranes were transferred to a nitrocellulose membrane (Bio-Rad, Hercules, Calif.). α4 subunit levels were detected by evaluating the band density at 67 kDa after probing with a polyclonal antibody (64). Membranes were incubated for 1-2 hours at room temperature with a 1:5000 dilution of horseradish peroxidase-conjugated donkey anti-rabbit IgG (Amersham, Arlington Heights, Ill.), and visualized with enhanced chemiluminescence with varying concentrations of protein in the linear range. Immunoreactive band densities were quantified using a CCD camera (UMAX Scanner) and one-Dscan software, which uses multiple Gaussian fits to achieve accurate band density profiles.

## CC(=O)[C@H]1CC[C@H]2[C@@H]3CCC4=CC(=O)CC[C@]4(C)[C@H]3CC[C@]12C [progesterone]
δ subunit mRNA
  δ subunit mRNA in hippocampus: three-fold
[1]
  expression of α4 subunit protein in hippocampus: three-fold
  expression of δ subunit protein in hippocampus: three-fold
GABAR α4 subunit
  increase of α4 expression: threefold
